Results: patent publication EP4768484A1, “HETEROCYCLIC FUSED RING COMPOUND, AND COMPOSITION AND USE THEREOF” (Shenzhen TargetRx, Inc., priority 2023, dated 2025)

What was measured:
Assay type in all cases: cell-based
Ba/F3 BCR-ABL1 T315I = target: T1, Ba/F3 BCR-ABL1 T315I (Homo sapiens, UniProt P00519+P11274, T315I); test: Cell growth inhibitory activity assay (CellTiter-Glo), Ba/F3 BCR-ABL1 T315I cells; conditions: 72 h, CTG cell viability
T1 construct: BCR (N-terminal fusion partner of the oncoprotein); expressed in transfected cells; host or cells: Ba/F3 (lentiviral transduction, monoclonal line)
In short: (§1)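 Ba/F3 lines stably transduced by lentivirus with WT or mutant BCR-ABL1, alongside untransduced parental Ba/F3, were seeded and incubated overnight at 37 °C, 5% CO2, then exposed to serially diluted compound for 72 h. Viability was read as ATP by CellTiter-Glo luminescence against a day-of-dosing T0 plate; IC50 from four-parameter nonlinear fit.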

Ba/F3 parental cells = test: Cell growth inhibitory activity assay (CellTiter-Glo), Ba/F3 parental cells; conditions: Mus musculus, BaF3, 72 h, CTG cell viability, read-out: IC50 Ba/F3 BCR-ABL1 Parental
In short: as §1

Ba/F3 BCR-ABL1 WT = target: T2, Ba/F3 BCR-ABL1 WT (Homo sapiens, UniProt P00519+P11274); test: Cell growth inhibitory activity assay (CellTiter-Glo), Ba/F3 BCR-ABL1 WT cells; conditions: 72 h, CTG cell viability
T2 construct: BCR (N-terminal fusion partner of the oncoprotein); expressed in transfected cells; host or cells: Ba/F3 (lentiviral transduction, monoclonal line)
In short: as §1

K562 cells = test: Cell growth inhibitory activity assay (CellTiter-Glo), K562 cells; conditions: Homo sapiens, 72 h, CTG cell viability
In short: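 Growth inhibition of human K562 cells, sourced from Nanjing Kebai (CBP60529), was assessed with Promega's CellTiter-Glo kit, which measures viability through ATP quantification. Log-phase cells went into the inner wells of 96-well plates, with PBS in edge wells, incubated overnight at 37 °C and 5% CO2, then exposed to serially diluted compound for 72 h.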

| Structure (SMILES) | IC50 (K562 cells) | IC50 (Ba/F3 BCR-ABL1 T315I) | IC50 (Ba/F3 parental cells) | IC50 (Ba/F3 BCR-ABL1 WT) |
| --- | --- | --- | --- | --- |
| CC1(C)C(=O)Nc2cc(C(=O)Nc3ccc(OC(F)(F)Cl)cc3)cc(-c3cnc4c(c3)-c3nn(-c5ncc(F)cn5)cc3C4)c21 [T-124, N-(4-(chlorodifluoromethoxy)phenyl)-4-(2-(5-fluoropyrimidin-2-yl)-2,4-dihydropyrazolo[3',4':3,4]cyclopenta[1,2-b]pyridin-7-yl)-3,3-dimethyl-2-oxoindoline-6-carboxamide] | ≤ 5 nM | ≤ 5 nM | > 1000 nM | ≤ 5 nM |
| Cc1cnc(-n2cc3c(n2)-c2cc(-c4cc(C(=O)Nc5ccc(OC(F)(F)Cl)cc5)cnc4N4CC[C@@H](F)C4)cnc2C3)nc1 [T-14, (R)-N-(4-(chlorodifluoromethoxy)phenyl)-6-(3-fluoropyrrolidin-1-yl)-5-(2-(5-methylpyrimidin-2-yl)-2,4-dihydropyrazolo[3',4':3,4]cyclopenta[1,2-b]pyridin-7-yl)nicotinamide] | ≤ 5 nM | ≤ 5 nM | > 1000 nM | ≤ 5 nM |
| C[C@@H]1COCc2nc3cc(C(=O)Nc4ccc(OC(F)(F)Cl)cc4)cc(-c4cnc5c(c4)-c4n[nH]cc4C5=O)c3n21 [T-60, (R)-N-(4-(chlorodifluoromethoxy)phenyl)-4-methyl-6-(4-oxo-2,4-dihydropyrazolo[3',4':3,4]cyclopenta[1,2-b]pyridin-7-yl)-3,4-dihydro-1H-benzo[4,5]imidazo[2,1-c][1,4]oxazine-8-carboxamide] | ≤ 5 nM | > 1000 nM | > 1000 nM | ≤ 5 nM |
| C[C@@H]1COCc2nc3cc(C(=O)Nc4ccc(OC(F)(F)Cl)cc4)cc(-c4cnc5c(c4)-c4nn(-c6nccc(-c7cccnc7)n6)cc4C5)c3n21 [T-87, (R)-N-(4-(chlorodifluoromethoxy)phenyl)-4-methyl-6-(2-(4-(pyridin-3-yl)pyrimidin-2-yl)-2,4-dihydropyrazolo[3',4':3,4]cyclopenta[1,2-b]pyridin-7-yl)-3,4-dihydro-1H-benzo[4,5]imidazo[2,1-c][1,4]oxazine-8-carboxamide] | ≤ 5 nM | ≤ 5 nM | > 1000 nM | ≤ 5 nM |
| C[C@@H]1COCc2nc3cc(C(=O)Nc4ccc(OC(F)(F)Cl)cc4)cc(-c4cnc5c(c4)-c4nn(-c6ncc7ccsc7n6)cc4C5)c3n21 [T-83, (R)-N-(4-(chlorodifluoromethoxy)phenyl)-4-methyl-6-(2-(thieno[2,3-d]pyrimidin-2-yl)-2,4-dihydropyrazolo[3',4':3,4]cyclopenta[1,2-b]pyridin-7-yl)-3,4-dihydro-1H-benzo[4,5]imidazo[2,1-c][1,4]oxazine-8-carboxamide] | ≤ 5 nM | ≤ 5 nM | > 1000 nM | ≤ 5 nM |
| CC(C)n1cnc2cc(C(=O)Nc3ccc(OC(F)(F)Cl)cc3)cc(-c3cnc4c(c3)-c3nn(-c5ncccn5)cc3C4)c21 [T-120, N-(4-(chlorodifluoromethoxy)phenyl)-1-isopropyl-7-(2-(pyrimidin-2-yl)-2,4-dihydropyrazolo[3',4':3,4]cyclopenta[1,2-b]pyridin-7-yl)-1H-benzo[d]imidazole-5-carboxamide] | ≤ 5 nM | ≤ 5 nM | > 1000 nM | ≤ 5 nM |
| Cn1ccc2cnc(-n3cc4c(n3)-c3cc(-c5cc(C(=O)Nc6ccc(OC(F)(F)Cl)cc6)cnc5N5CC[C@@H](F)C5)cnc3C4)nc21 [T-38, (R)-N-(4-(chlorodifluoromethoxy)phenyl)-6-(3-fluoropyrrolidin-1-yl)-5-(2-(7-methyl-7H-pyrrolo[2,3-d]pyrimidin-2-yl)-2,4-dihydropyrazolo[3',4':3,4]cyclopenta[1,2-b]pyridin-7-yl)nicotinamide] | ≤ 5 nM | ≤ 5 nM | > 1000 nM | ≤ 5 nM |
| COc1cnc(-n2cc3c(n2)-c2cc(-c4cc(C(=O)Nc5ccc(OC(F)(F)Cl)cc5)cnc4N4CC[C@@H](F)C4)cnc2C3)nc1 [T-17, (R)-N-(4-(chlorodifluoromethoxy)phenyl)-6-(3-fluoropyrrolidin-1-yl)-5-(2-(5-methoxypyrimidin-2-yl)-2,4-dihydropyrazolo[3',4':3,4]cyclopenta[1,2-b]pyridin-7-yl)nicotinamide] | ≤ 5 nM | ≤ 5 nM | > 1000 nM | ≤ 5 nM |
| O=C(Nc1ccc(OC(F)(F)Cl)cc1)c1cnc(N2CC[C@@H](F)C2)c(-c2cnc3c(c2)-c2nn(-c4ncc(F)cn4)cc2C3F)c1 (stereo partly drawn) [T-130, N-(4-(chlorodifluoromethoxy)phenyl)-5-(4-fluoro-2-(5-fluoropyrimidin-2-yl)-2,4-dihydropyrazolo[3',4':3,4]cyclopenta[1,2-b]pyridin-7-yl)-6-((R)-3-fluoropyrrolidin-1-yl)nicotinamide] | ≤ 5 nM | ≤ 5 nM | > 1000 nM | ≤ 5 nM |
| CC(C)C(=O)n1cc2c(n1)-c1cc(-c3cc(C(=O)Nc4ccc(OC(F)(F)Cl)cc4)cc4nc5n(c34)[C@H](C)COC5)cnc1C2 [T-46, (R)-N-(4-(chlorodifluoromethoxy)phenyl)-6-(2-isobutyryl-2,4-dihydropyrazolo[3',4':3,4]cyclopenta[1,2-b]pyridin-7-yl)-4-methyl-3,4-dihydro-1H-benzo[4,5]imidazo[2,1-c][1,4]oxazine-8-carboxamide] | ≤ 5 nM | ≤ 5 nM | > 1000 nM | ≤ 5 nM |

Now from value to compound, other results behind:

| IC50 (K562 cells) | Structure (SMILES) | IC50 (Ba/F3 BCR-ABL1 T315I) | IC50 (Ba/F3 parental cells) | IC50 (Ba/F3 BCR-ABL1 WT) |
| --- | --- | --- | --- | --- |
| ≤ 5 nM | Cn1ccc(-c2ccnc(-n3cc4c(n3)-c3cc(-c5cc(C(=O)Nc6ccc(OC(F)(F)Cl)cc6)cnc5N5CC[C@@H](F)C5)cnc3C4)n2)n1 [T-26, (R)-N-(4-(chlorodifluoromethoxy)phenyl)-6-(3-fluoropyrrolidin-1-yl)-5-(2-(4-(1-methyl-1H-pyrazol-3-yl)pyrimidin-2-yl)-2,4-dihydropyrazolo[3',4':3,4]cyclopenta[1,2-b]pyridin-7-yl)nicotinamide] | ≤ 5 nM | > 1000 nM | ≤ 5 nM |
| ≤ 5 nM | CC(C)n1cc2c(n1)-c1cc(-c3cc(C(=O)Nc4ccc(OC(F)(F)Cl)cc4)cc4nc5n(c34)[C@H](C)COC5)ccc1C2 [T-110, (R)-N-(4-(chlorodifluoromethoxy)phenyl)-6-(2-isopropyl-2,4-dihydroindeno[1,2-c]pyrazol-7-yl)-4-methyl-3,4-dihydro-1H-benzo[4,5]imidazo[2,1-c][1,4]oxazine-8-carboxamide] | 5 to 50 nM | > 1000 nM | ≤ 5 nM |
| ≤ 5 nM | C[C@@H]1COCc2nc3cc(C(=O)Nc4ccc(OC(F)(F)Cl)cc4)cc(-c4cnc5c(c4)-c4nn(-c6ccncc6)cc4C5)c3n21 [T-64] | > 1000 nM | > 1000 nM | ≤ 5 nM |
| ≤ 5 nM | [2H]C([2H])([2H])n1cc2c(n1)-c1cc(-c3cc(C(=O)Nc4ccc(OC(F)(F)Cl)cc4)cc4nc5n(c34)[C@H](C)COC5)cnc1C2 [T-53, (R)-N-(4-(chlorodifluoromethoxv)phenyl)-4-methyl-6-(2-(methyl-d3)-2,4-dihydropyrazolo[3',4':3,4]cyclopenta[1,2-b]pyridin-7-yl)-3,4-dihydro-1H-benzo[4,5]imidazo[2,1-c][1,4]oxazine-8-carboxamide] | ≤ 5 nM | > 1000 nM | ≤ 5 nM |
| ≤ 5 nM | O=C(Nc1ccc(OC(F)(F)Cl)cc1)c1cnc(N2CC[C@@H](F)C2)c(-c2cnc3c(c2)-c2nn(-c4ncc(N5CC[C@@H](F)C5)cn4)cc2C3)c1 [T-50, N-(4-(chlorodifluoromethoxy)phenyl)-6-((R)-3-fluoropyrrolidin-1-yl)-5-(2-(5-((R)-3-fluoropyrrolidin-1-yl)pyrimidin-2-yl)-2,4-dihydropyrazolo[3',4':3,4]cyclopenta[1,2-b]pyridin-7-yl)nicotinamide] | 5 to 50 nM | > 1000 nM | ≤ 5 nM |
| ≤ 5 nM | O=C(Nc1ccc(OC(F)(F)Cl)cc1)c1cnc(N2CC[C@@H](F)C2)c(-c2cnc3c(c2)-c2n[nH]cc2C3)c1 [T-1, (R)-N-(4-(chlorodifluoromethoxy)phenyl)-5-(2,4-dihydropyrazolo[3',4':3,4]cyclopenta[1,2-b]pyridin-7-yl)-6-(3-fluoropyrrolidin-1-yl)nicotinamide] | ≤ 5 nM | > 1000 nM | ≤ 5 nM |
| ≤ 5 nM | COc1cnc(-n2cc3c(n2)-c2cc(-c4cc(C(=O)Nc5ccc(OC(F)(F)Cl)cc5)cc5nc6n(c45)[C@H](C)COC6)cnc2C3)nc1 [T-77, (R)-N-(4-(chlorodifluoromethoxy)phenyl)-6-(2-(5-methoxypyrimidin-2-yl)-2,4-dihydropyrazolo[3',4':3,4]cyclopenta[1,2-b]pyridin-7-yl)-4-methyl-3,4-dihydro-1H-benzo[4,5]imidazo[2,1-c][1,4]oxazine-8-carboxamide] | ≤ 5 nM | > 1000 nM | ≤ 5 nM |
| ≤ 5 nM | C[C@@H]1COCc2nc3cc(C(=O)Nc4ccc(OC(F)(F)Cl)cc4)cc(-c4cnc5c(c4)-c4nn(-c6ncc(-c7ccccc7)cn6)cc4C5)c3n21 [T-80, (R)-N-(4-(chlorodifluoromethoxy)phenyl)-4-methyl-6-(2-(5-phenylpyrimidin-2-yl)-2,4-dihydropyrazolo[3',4':3,4]cyclopenta[1,2-b]pyridin-7-yl)-3,4-dihydro-1H-benzo[4,5]imidazo[2,1-c][1,4]oxazine-8-carboxamide] | ≤ 5 nM | > 1000 nM | ≤ 5 nM |
